The record followed here is patent US20240207263A1, “SELECTIVE MODULATORS OF ATAXIA TELA[…] (ATM) KINASE AND USES THEREOF” (priority 2021, published 2024).

SMILES strings stand for the structures. Where two headings read alike, the source gives them in different places.

One assay deals with FaDu xenograft. As to the kind of experiment: FaDu xenograft model, radiation combination (Assay i). It counts as in vivo, mouse. As to conditions: total IR 30 Gy (3 cycles), combo with IR. Here is the method:
Assay i): FaDu Xenograft Model
Cell culture: FaDu tumor cells were cultured in an EMEM medium containing inactivated 10% fetal bovine serum, 100 U/ml penicillin and 100 μg/ml streptomycin in a 37° C., 5% CO2 incubator.
Inoculation and grouping: Xenografts were established by implantation of 100 μl of Fadu tumor cell suspension (5×10^6 cells/mouse) subcutaneously into the right flank of female immune-compromised BALB/c nude mice at least 6 weeks of age. Tumours were measured in two dimensions with calipers and the tumour volume was calculated using the following formula: tumor volume=(length×width^2)×0.5. When the average tumor volume reached 100 to 150 mm^3, tumour-bearing mice were randomized into treatment groups.
Treatment and tumor assessment: Animals received 3 to 6 cycles of treatment with compounds combined with radiation therapy. Each cycle included 5 consecutive treatment day plus 2 days' rest. Ionizing radiation was administered using a fractionated schedule of 2 Gy per day administered over 5 consecutive days (total radiation dose=10 Gy/cycle). Compound was given orally 10 minutes before irradiation. The tumour volume and body weight of the mice were measured twice weekly.
Statistical Analysis: The One-Way ANOVA test was used for statistical analysis of tumor volume between groups, and p<0.05 was considered as a significant difference.

Assay [1] deals with phosp-KAP1 in MCF-7 cells. As to the kind of experiment: phosp-KAP1 MCF-7 cellular potency assay (Assay f). It counts as cell-based. As to conditions: Homo sapiens. The procedure:
Assay f): phosp-KAP1 MCF-7 Cellular Potency
MCF-7 cells were seeded to a 384-well cell-culture plate, 25 μl/well which were incubated at 37° C. and 5% CO2 for 24 hr. Test compounds were added to the 384-well plates. Etoposide at final concentration of 100 μM was then added to each well except Vehicle control wells, which were incubated at 37° C. and 5% CO2 for 1 hour. After medium removal, cells were fixed by the addition of 25 μl/well of 8% paraformaldehyde in PBSA and incubated for 20 minutes at room temperature. After the plates were rinsed 3 times with PBSA, 50 ul permeabilization buffer (0.1% Triton X-100 in PBS) was added and the plates were incubated for 20 minutes at room temperature. After the plates were rinsed with PBSA, block the cells by adding 50 μl of Odyssey Blocking Buffer in 384-well plate and then incubate for 1.5 hours at room temperature. Remove blocking buffer by Plate washer (BioTek ELx405 select CW). […] The plates were rinsed 5 times with PBST (0.1% Tween-20 in PBS).
• 1) Fluorescence intensity (FI) was detected for each well. • 2) % inhibition is calculated as follow:
[formula] • FIpositive: The average FI for the positive controls across the plate. • FIvehicle: The average FI for negative controls across the plate. • 3) Calculate IC50 and Plot effect-dose curve of compounds: • Calculate IC50 by fitting % inhibition values and log of compound concentrations to nonlinear regression (dose response−variable slope) with Graphpad prism 6.0.
Y=Bottom+(Top−Bottom)/(1+10^((Log IC50−X)*HillSlope)) • X: log of compounds concentration; Y: % inhibition

The next assay has as its target ATM (Homo sapiens (Human), UniProt Q13315). As to the kind of experiment: biochemical. Type of assay: biochemical. As to conditions: read-out: ATM IC50. An excerpt:
Assay a): ATM Biochemical Potency
Data was collected by Caliper.

Assay [2] has as its target ATM (phospho-ATM Ser1981) in SN38 treated HT-29 cells (Homo sapiens (Human), UniProt Q13315). As to the kind of experiment: cell-based. As to conditions: HT-29 cells, SN-38; read-out: SN-38 HT-29 cellular IC50. Here is the method: Assay g): ATM SN-38 HT-29 Cellular Potency
SN38 causes single strand DNA breaks (SSBs) which are converted to double strand breaks (DSBs) during replication. ATM plays role of repairing DSBs. Inhibition of ATM was evaluated in SN38 treated HT-29 cells (ATCC, Cat #HTB-38) by high-Content Imaging System
The graphical views were then generated using Prism 7.0 (Graphpad).

Setting [3] is: MCF7, read-out: Etoposide MCF-7 cellular IC50.
[4] abbreviates: MCF7, MCF-7 cells, etoposide, read-out: Etoposide MCF-7 cellular IC50.

Sequence of ATM (phospho-ATM Ser1981) in SN38 treated HT-29 cells (Q13315 whole entry, looked up): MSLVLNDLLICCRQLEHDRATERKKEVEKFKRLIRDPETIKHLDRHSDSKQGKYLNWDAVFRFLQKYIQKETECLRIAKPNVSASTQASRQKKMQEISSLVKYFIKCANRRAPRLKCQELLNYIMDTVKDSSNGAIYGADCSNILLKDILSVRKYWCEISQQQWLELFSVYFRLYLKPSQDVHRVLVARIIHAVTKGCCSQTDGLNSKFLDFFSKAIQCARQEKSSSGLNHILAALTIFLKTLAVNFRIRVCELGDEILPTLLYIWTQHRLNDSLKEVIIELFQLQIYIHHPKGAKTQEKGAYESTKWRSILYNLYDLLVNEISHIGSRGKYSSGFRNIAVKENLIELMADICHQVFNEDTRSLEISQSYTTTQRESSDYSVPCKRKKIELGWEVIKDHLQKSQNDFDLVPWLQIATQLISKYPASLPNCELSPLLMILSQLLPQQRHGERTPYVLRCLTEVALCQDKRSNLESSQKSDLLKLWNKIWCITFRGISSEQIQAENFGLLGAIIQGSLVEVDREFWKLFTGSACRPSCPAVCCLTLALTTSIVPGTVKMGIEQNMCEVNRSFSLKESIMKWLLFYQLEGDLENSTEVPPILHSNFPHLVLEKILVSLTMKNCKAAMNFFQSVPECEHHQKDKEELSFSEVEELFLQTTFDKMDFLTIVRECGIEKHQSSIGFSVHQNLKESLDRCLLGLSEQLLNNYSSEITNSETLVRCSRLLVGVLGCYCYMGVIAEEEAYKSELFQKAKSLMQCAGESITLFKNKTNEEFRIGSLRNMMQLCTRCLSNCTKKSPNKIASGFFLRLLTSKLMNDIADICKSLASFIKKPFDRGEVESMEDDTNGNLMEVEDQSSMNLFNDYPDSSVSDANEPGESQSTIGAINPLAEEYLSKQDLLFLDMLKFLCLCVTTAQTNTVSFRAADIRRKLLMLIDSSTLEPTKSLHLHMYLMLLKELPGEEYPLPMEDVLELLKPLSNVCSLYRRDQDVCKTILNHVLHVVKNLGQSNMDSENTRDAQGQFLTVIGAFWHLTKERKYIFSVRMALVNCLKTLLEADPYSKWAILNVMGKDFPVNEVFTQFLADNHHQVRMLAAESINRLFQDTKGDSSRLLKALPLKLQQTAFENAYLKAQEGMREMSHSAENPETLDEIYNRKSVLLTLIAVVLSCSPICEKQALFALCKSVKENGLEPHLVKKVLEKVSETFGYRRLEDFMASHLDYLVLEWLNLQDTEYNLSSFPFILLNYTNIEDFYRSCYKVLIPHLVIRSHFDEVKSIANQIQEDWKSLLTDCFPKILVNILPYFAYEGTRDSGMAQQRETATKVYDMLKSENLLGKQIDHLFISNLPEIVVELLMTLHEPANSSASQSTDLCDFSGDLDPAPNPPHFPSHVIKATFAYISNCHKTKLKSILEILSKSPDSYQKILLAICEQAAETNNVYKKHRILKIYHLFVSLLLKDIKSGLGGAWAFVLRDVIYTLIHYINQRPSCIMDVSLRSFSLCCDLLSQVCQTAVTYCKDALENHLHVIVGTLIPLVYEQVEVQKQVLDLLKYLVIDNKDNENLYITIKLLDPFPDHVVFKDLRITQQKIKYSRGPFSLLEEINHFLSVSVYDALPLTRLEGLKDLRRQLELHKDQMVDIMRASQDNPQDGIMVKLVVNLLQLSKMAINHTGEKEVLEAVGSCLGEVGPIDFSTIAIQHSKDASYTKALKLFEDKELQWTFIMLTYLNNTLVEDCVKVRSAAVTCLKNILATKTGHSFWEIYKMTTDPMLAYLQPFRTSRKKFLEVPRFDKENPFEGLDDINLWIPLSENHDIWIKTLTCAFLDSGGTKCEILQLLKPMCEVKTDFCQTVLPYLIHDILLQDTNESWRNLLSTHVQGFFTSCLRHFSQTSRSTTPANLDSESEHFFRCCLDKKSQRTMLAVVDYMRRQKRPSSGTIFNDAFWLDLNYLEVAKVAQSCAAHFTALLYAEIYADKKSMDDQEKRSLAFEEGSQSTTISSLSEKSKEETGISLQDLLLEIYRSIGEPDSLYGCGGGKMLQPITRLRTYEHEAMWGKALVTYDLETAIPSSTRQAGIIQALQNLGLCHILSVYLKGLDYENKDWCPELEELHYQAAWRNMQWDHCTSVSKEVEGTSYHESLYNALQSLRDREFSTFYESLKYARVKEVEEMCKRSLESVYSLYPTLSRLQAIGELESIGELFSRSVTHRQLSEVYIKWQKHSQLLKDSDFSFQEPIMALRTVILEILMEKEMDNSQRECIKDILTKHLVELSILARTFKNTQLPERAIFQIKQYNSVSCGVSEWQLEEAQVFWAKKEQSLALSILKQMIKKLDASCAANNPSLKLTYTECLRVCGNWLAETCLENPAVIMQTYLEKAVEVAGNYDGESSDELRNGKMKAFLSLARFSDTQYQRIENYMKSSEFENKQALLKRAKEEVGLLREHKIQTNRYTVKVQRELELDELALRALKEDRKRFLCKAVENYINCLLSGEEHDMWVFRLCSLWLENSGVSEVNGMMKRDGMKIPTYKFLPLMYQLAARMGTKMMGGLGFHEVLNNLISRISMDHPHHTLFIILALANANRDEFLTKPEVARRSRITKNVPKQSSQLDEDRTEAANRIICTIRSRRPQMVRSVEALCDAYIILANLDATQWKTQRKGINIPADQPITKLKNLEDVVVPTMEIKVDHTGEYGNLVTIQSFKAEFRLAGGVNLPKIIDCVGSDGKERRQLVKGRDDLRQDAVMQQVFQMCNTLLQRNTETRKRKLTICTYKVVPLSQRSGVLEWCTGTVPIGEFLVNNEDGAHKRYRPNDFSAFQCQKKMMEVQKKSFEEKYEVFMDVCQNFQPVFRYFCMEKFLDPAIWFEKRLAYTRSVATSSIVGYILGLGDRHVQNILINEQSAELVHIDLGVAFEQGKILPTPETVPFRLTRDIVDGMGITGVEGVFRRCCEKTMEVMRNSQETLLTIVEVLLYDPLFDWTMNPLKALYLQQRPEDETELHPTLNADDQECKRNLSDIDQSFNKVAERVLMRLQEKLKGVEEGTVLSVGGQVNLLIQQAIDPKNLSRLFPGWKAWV
Sequence of ATM (Q13315 whole entry, looked up): as above

Usually IC50 stands for the concentration that inhibits the measured activity by half. For `CC(C)n1c(=O)n(C)c2nnc3ccc(-c4ccc(COCCN5CC6CC6C5)nc4)cc3c21` (centres unmarked) [Example 1, 8-(6-((2-(3-azabicyclo[3.1.0]hexan-3-yl)ethoxy)methyl)pyridin-3-yl)-1-isopropyl-3-methyl-1H-imidazo[4,5-c]cinnolin-2(3H)-one], the results for the “Inhibition (% TGI) Combo” value with FaDu xenograft (50 mg/kg PO. TID) and with FaDu xenograft (150 mg/kg PO. TID) were 76.8 ± 2.72 % TGI and 92.0 ± 1.31 % TGI, respectively. The IC50 came out at 40 nM in assay [1] (setting [3]) and 16 nM on ATM.
As to `CC(C)n1c(=O)n(C)c2nnc3ccc(-c4ccc(COCCN5CCC(F)CC5)nc4)cc3c21` [Example 5, 8-(6-((2-(4-fluropiperidin-1-yl)ethoxy)methyl)pyridin-3-yl)-1-isopropyl-3-methyl-1H-imidazo[4,5-c]cinnolin-2(3H)-one], the “Inhibition (% TGI) Combo” value in the assay with FaDu xenograft (50 mg/kg PO. TID) turned out to be 79.6 ± 2.78 % TGI; in the assay on FaDu xenograft (150 mg/kg PO. TID) it was 91.9 ± 1.16 % TGI. The values for the IC50 (in assay [1] (setting [4]); at ATM; in assay [2]) were 27 nM, 14 nM and 130 nM, respectively.
As to `CC(C)n1c(=O)n(C)c2nnc3ccc(-c4ccc(COCCN5CCC(C)(C)C5)nc4)cc3c21` [Example 36, 8-(6-((2-(3,3-dimethylpyrrolidin-1-yl)ethoxy)methyl)pyridin-3-yl)-1-isopropyl-3-methyl-1H-imidazo[4,5-c]cinnolin-2(3H)-one], the IC50 in assay [1] (setting [3]) was 20 nM; on ATM, 4.7 nM; in assay [2], 20 nM.
For the compound `CO[C@H]1CCN(CCOCc2ccc(-c3ccc4nnc5c(c4c3)n(C(C)C)c(=O)n5C)cn2)C1` [Example 43, (S)-1-isopropyl-8-(6-((2-(3-methoxypyrrolidin-1-yl)ethoxy)methyl)pyridin-3-yl)-3-methyl-1H-imidazo[4,5-c]cinnolin-2(3H)-one], the IC50 came out at 12 nM on ATM and 92 nM in assay [2].
With `CO[C@@H]1CCN(CCO[C@H](C)c2ccc(-c3ccc4nnc5c(c4c3)n(C(C)C)c(=O)n5C)cn2)C1` [Example 57, 1-isopropyl-8-(6-((R)-1-(2-((R)-3-methoxypyrrolidin-1-yl)ethoxy)ethyl)pyridin-3-yl)-3-methyl-1H-imidazo[4,5-c]cinnolin-2(3H)-one], the results for the IC50 (in assay [1] (setting [4]); at ATM; in assay [2]) were 20 nM, 4.2 nM and 19 nM, respectively.
In the same order, the values of `CC(C)n1c(=O)n(C)c2nnc3ccc(-c4ccc([C@@H](C)OCCN5CCC(F)CC5)nc4)cc3c21` [Example 69, (R)-8-(6-(1-(2-(4-fluoropiperidin-1-yl)ethoxy)ethyl)pyridin-3-yl)-1-isopropyl-3-methyl-1H-imidazo[4,5-c]cinnolin-2(3H)-one] are 34 nM, 5.2 nM and 47 nM.
As to `CC(C)n1c(=O)n(C)c2nnc3ccc(-c4ccc([C@@H](C)OCCN5CCC(C)(C)CC5)nc4)cc3c21` [Example 73, (R)-8-(6-(1-(2-(4,4-dimethylpiperidin-1-yl)ethoxy)ethyl)pyridin-3-yl)-1-isopropyl-3-methyl-1H-imidazo[4,5-c]cinnolin-2(3H)-one], the IC50 in assay [1] (setting [3]) came to 9.1 nM; at ATM, 3.5 nM; in assay [2], 9.1 nM.
In the case of `C[C@@H](OCCN1CCC2(CCC2)C1)c1ccc(-c2ccc3nnc4c(c3c2)n(C2CCOCC2)c(=O)n4C)cn1` [Example 118, (R)-8-(6-(1-(2-(6-azaspiro[3.4]octan-6-yl)ethoxy)ethyl)pyridin-3-yl)-3-methyl-1-(tetrahydro-2H-pyran-4-yl)-1H-imidazo[4,5-c]cinnolin-2(3H)-one], the IC50 in assay [1] (setting [4]) is 71 nM; on ATM it was 4.1 nM.
On to `CC(C)n1c(=O)n(C)c2nnc3cc(F)c(-c4ccc(COCCN5CCC(C)(C)CC5)nc4)cc3c21` [Example 133, 8-(6-((2-(4,4-dimethylpiperidin-1-yl)ethoxy)methyl)pyridin-3-yl)-7-fluoro-1-isopropyl-3-methyl-1H-imidazo[4,5-c]cinnolin-2(3H)-one], for which the figures for the IC50 (in assay [1] (setting [4]); on ATM) were 44 nM and 13 nM, respectively.
The like results for `CC(C)n1c(=O)n(C)c2nnc3cc(F)c(-c4ccc([C@@H](C)OCCN5CCC(C)(C)C5)nc4)cc3c21` [Example 137, (R)-8-(6-(1-(2-(3,3-dimethylpyrrolidin-1-yl)ethoxy)ethyl)pyridin-3-yl)-7-fluoro-1-isopropyl-3-methyl-1H-imidazo[4,5-c]cinnolin-2(3H)-one] were, in that order, 22 nM and 6.3 nM.
In the same order, the values of `CC(C)n1c(=O)n(C)c2nnc3cc(F)c(-c4ccc([C@@H](C)OCCN5CCC6(CC5)CC6)nc4)cc3c21` [Example 140, (R)-8-(6-(1-(2-(6-azaspiro[2.5]octan-6-yl)ethoxy)ethyl)pyridin-3-yl)-7-fluoro-1-isopropyl-3-methyl-1H-imidazo[4,5-c]cinnolin-2(3H)-one] are 14 nM and 2.8 nM.
As for `COC1CCN(CCO[C@H](C)c2ccc(-c3cc4c(cc3F)nnc3c4n(C(C)C)c(=O)n3C)cn2)CC1` [Example 142, (R)-7-fluoro-1-isopropyl-8-(6-(1-(2-(4-methoxypiperidin-1-yl)ethoxy)ethyl)pyridin-3-yl)-3-methyl-1H-imidazo[4,5-c]cinnolin-2(3H)-one], the IC50 was 24 nM in assay [1] (setting [4]) and 4.7 nM at ATM.
In the same order, the values of `CC(C)n1c(=O)n(C)c2nnc3cc(F)c(-c4ccc([C@@H](C)OCCN5CCC(OC(F)(F)F)CC5)nc4)cc3c21` [Example 144, (R)-7-fluoro-1-isopropyl-3-methyl-8-(6-(1-(2-(4-(trifluoromethoxy)piperidin-1-yl)ethoxy)ethyl)pyridin-3-yl)-1H-imidazo[4,5-c]cinnolin-2(3H)-one] are 47 nM and 2.9 nM.
Consider `C[C@@H](OCCN1CCC(C)(C)C1)c1ccc(-c2cc3c(cc2F)nnc2c3n(C3CCOCC3)c(=O)n2C)cn1` [Example 153, (R)-8-(6-(1-(2-(3,3-dimethylpyrrolidin-1-yl)ethoxy)ethyl)pyridin-3-yl)-7-fluoro-3-methyl-1-(tetrahydro-2H-pyran-4-yl)-1H-imidazo[4,5-c]cinnolin-2(3H)-one], for which the IC50 in assay [1] (setting [4]) is 43 nM; at ATM, 8.5 nM.
The like results for `CO[C@H]1C[C@@H](n2c(=O)n(C)c3nnc4ccc(-c5ccc(COCCN6CCC(F)CC6)nc5)cc4c32)C1` [Example 174, 8-(6-((2-(4-fluoropiperidin-1-yl)ethoxy)methyl)pyridin-3-yl)-1-(cis-3-methoxycyclobutyl)-3-methyl-1H-imidazo[4,5-c]cinnolin-2(3H)-one] were, in that order, 26 nM and 28 nM.
In the case of `CO[C@H]1C[C@@H](n2c(=O)n(C)c3nnc4ccc(-c5ccc(COCCN6CC7CC7C6)nc5)cc4c32)C1` (stereo partly drawn) [Example 175, 8-(6-((2-(3-azabicyclo[3.1.0]hexan-3-yl)ethoxy)methyl)pyridin-3-yl)-1-(cis-3-methoxycyclobutyl)-3-methyl-1H-imidazo[4,5-c]cinnolin-2(3H)-one], the 50% inhibitory concentration (IC50) in assay [1] (setting [4]) is 33 nM; at ATM, 25 nM; in assay [2], 170 nM.
As for `CC(C)n1c(=O)n(C)c2nnc3cc(F)c(-c4ccc(COCCN5CCC(F)CC5)nc4)cc3c21` [Ref compd 1, 7-fluoro-8-(6-((2-(4-fluoropiperidin-1-yl)ethoxy)methyl)pyridin-3-yl)-1-isopropyl-3-methyl-1H-imidazo[4,5-c]cinnolin-2(3H)-one, reference compound], the concentration for half-maximal inhibition (IC50) was determined as 25 nM at ATM and 273 nM in assay [2].
